{"source": "patent US20220040123A1", "about": "“ANTI-HELICOBACTER FOOD COMPOSITION COMPRISING BETA-CARYOPHYLLENE” (priority 2018, published 2022)", "key": {"Helicobacter pylori": {"tested_on": "Helicobacter pylori", "test": "Immunohistochemical staining of gastric mucosa and submucosal layer with Helicobacter pylori-specific antibody", "format": "in vivo, Mongolian gerbils", "protocol": "Mongolian gerbils were infected with a Helicobacter pylori strain (ATCC 49503) and then subjected to two weeks of acclimatization. To this end, the animals were fasted for 12 hours before and after inoculation with the Helicobacter pylori strain. 500 μl (1×10^9 CFU) of a bacterial suspension was prepared by suspending H. pylori in sterile physiological saline to a concentration of 2×10^9 CFU/ml and introduced directly into the stomach by using a feeding needle. For stable infection, the H. pylori strain was dispensed three times at 48 hour-intervals.\nBeta-caryophyllene was administered directly into the gastrointestinal at doses of 100 mg/kg and 500 mg/kg for the low and high dose groups, respectively, for 12 weeks after two weeks after infection with H. pylori. The same amount of corn oil as the beta-caryophyllene was administered to each of the non-infected group and the infected group.\nAt weeks 0, 6 and 12 of the experiment, a paraffin block was prepared from with the stomach tissue of the infected animal model, and then stomach tissue slide sample with a thickness of 2 μm was prepared from the paraffin block using a microtome (Leica). For immunohistochemical staining, the slide was deparaffinized, heated with citrate buffer in a bath for 20 minutes, and then subjected to immunohistochemical staining using an IHC kit (Vectastain ABC kit, Vector). […]"}, "[1]": {"tested_on": "flhA, flaA, flaB and flgE genes", "test": "RT-PCR of flagella-associated genes of H. pylori", "format": "cell-based, Helicobacter pylori", "conditions": "31.25-500 μg/ml", "protocol": "In order to evaluate the effect of beta-caryophyllene treatment on the inhibition of flagella of H. pylori, changes in the expression of the flhA, flaA, flaB and flgE genes which constitute the flagella or are associated with the function of the flagella were examined, and the results are shown in FIG. 9. Specifically, H. pylori was treated with beta-caryophyllene at concentrations of 31.25, 62.5, 125, 250 and 500 μg/ml, and expression of the genes was analyzed by RT-PCR."}, "[2]": {"tested_on": "Helicobacter pylori 16S rRNA", "test": "qPCR test for gastric mucosal Helicobacter pylori (16S rRNA)", "format": "in vivo, C57BL/6 mouse", "conditions": "for Gene expression level (Ct): 28 days, 16S rRNA vs 18SrRNA, control G3 13.80", "protocol": "In order to compare the Helicobacter pylori eradiation effect between beta-caryophyllene and the antibiotics that are used for treatment of Helicobacter pylori infection, an animal test was performed using the test groups and doses shown in Table 1 below.\nEach test substance was suspended in an excipient according to the dose and administered to each mouse once a day at the same time every day for a total of 28 days in a dose of 5 ml per kg mouse (C57BL/6 mouse) by oral gavage method.\nAfter completion of the test, RNA was collected from the aseptically collected gastric mucosal tissue, and then synthesized into DNA to perform a PCR test. The marker gene used in this experiment was 16S rRNA, which is specifically found only in H. pylori and is not found in humans or mice. 18SrRNA was used as a loading control gene of the used DNA sample. The Ct value for each gene was obtained by reacting the fluorescent intercalator SYBR Green with the corresponding primer and DNA, and then calculated by relative quantification, and the results are shown in Table 4 below."}, "[3]": {"tested_on": "CagA, VacA and SecA proteins", "test": "Western blotting of H. pylori toxins CagA, VacA and SecA", "format": "cell-based, Helicobacter pylori", "conditions": "125, 250 and 500 μg/ml, 3 days culture", "protocol": "To evaluate the effect of beta-caryophyllene treatment on the production of toxins secreted by Helicobacter pylori, Helicobacter pylori was treated with beta-caryophyllene, and then the amounts of CagA, VacA and SecA proteins were analyzed by Western blotting.\nFor Western blotting, samples obtained by treating Helicobacter pylori with beta-caryophyllene at concentrations of 0, 125, 250 and 500 μg/ml and culturing the treated Helicobacter pylori for 3 days were lysed with RIPA lysis buffer (Millipore) on ice for 30 minutes and then centrifuged. The supernatants were collected, and then proteins therein were quantified using a spectrophotometer (Infinite M200, TECAN).\nEqual amounts of protein samples were loaded and electrophoresed on 10% SDS polyacrylamide gel, and the protein fractions were transferred to nitrocellulose membranes (PALL) and reacted with CagA (mouse monoclonal IgG antibody, Santa Cruz), VacA (rabbit polyclonal IgG antibody, Santa Cruz), SecA (rabbit polyclonal IgG antibody, produced by the applicant) and anti-Helicobacter pylori (rabbit polyclonal IgG antibody, produced by the applicant) antibodies at 4° C. for 16 hours. After completion of the primary antibody reaction, secondary blocking (1 hr/RT) was performed. As secondary antibodies, donkey anti-rabbit IgG-HRP, donkey anti-mouse IgG-HRP or donkey anti-goat IgG-HRP (Santa Cruz) was used depending on the primary antibody. The reaction products were treated by an enhanced chemiluminescence kit (Thermo), and then analyzed by Chemidoc (Fusion solo, Vilber Lourmat)."}, "urease A and urease B": {"tested_on": "urease A and urease B", "test": "Expression of urease protein in H. pylori", "format": "cell-based, Helicobacter pylori", "conditions": "125, 250 and 500 μg/ml, all treatment concentrations", "protocol": "In order to evaluate the effect of beta-caryophyllene treatment on the inhibition of H. pylori urease, H. pylori was treated with beta-caryophyllene at concentrations of 125, 250 and 500 μg/ml, and changes in the expression of urease protein were analyzed, and the results are shown in FIG. 7."}, "[4]": {"tested_on": "sabA, hopZ, hpaA, alpA, alpB and babA genes", "test": "RT-PCR of genes involved in the adhesion of H. pylori", "format": "cell-based, Helicobacter pylori", "conditions": "31.25-500 μg/ml", "protocol": "In order to evaluate the effect of beta-caryophyllene against the adhesion function of H. pylori, changes in the expression of the genes sabA, hopZ, hpaA, alpA, alpB and babA involved in the adhesion of H. pylori were analyzed, and the results are shown in FIG. 8. Specifically, H. pylori was treated with beta-caryophyllene at concentrations of 31.25, 62.5, 125, 250 and 500 μg/ml, and the expression of the genes was analyzed by RT-PCR."}}, "data": [{"compound": "C=C1CC/C=C(\\C)CC[C@@H]2[C@@H]1CC2(C)C", "note": "[beta-caryophyllene]", "values": [{"measurement": "Helicobacter pylori infection in gastric mucosa and submucosal layer (IHC)", "setting": "Helicobacter pylori; week 6, low dose (100 mg/kg) and high dose (500 mg/kg) groups vs infected group", "value": "significantly decreased"}, {"measurement": "Helicobacter pylori detection in gastric mucosa (IHC)", "setting": "Helicobacter pylori; week 12, low dose (100 mg/kg) and high dose (500 mg/kg) groups vs infected group", "value": "hardly detected"}, {"measurement": "expression of flgE gene", "setting": "[1]", "value": "decreased"}, {"measurement": "expression of flhA gene", "setting": "[1]", "value": "decreased"}, {"measurement": "Gene expression level (Ct)", "setting": "[2]; G6: 100 mg/kg/day", "value": 11.99, "unit": "Ct"}, {"measurement": "decrease of Ct value compared to G3", "setting": "[2]; G6: 100 mg/kg/day, not statistically significant", "value": 13.1, "unit": "%"}, {"measurement": "Gene expression level (Ct)", "setting": "[2]; G7: 200 mg/kg/day", "value": 9.40, "unit": "Ct"}, {"measurement": "decrease of Ct value compared to G3", "setting": "[2]; G7: 200 mg/kg/day, not statistically significant", "value": 31.9, "unit": "%"}, {"measurement": "Gene expression level (Ct)", "setting": "[2]; G8: 500 mg/kg/day", "value": 5.71, "unit": "Ct"}, {"measurement": "decrease of Ct value compared to G3", "setting": "[2]; G8: 500 mg/kg/day, statistically significant", "value": 58.6, "unit": "%"}, {"measurement": "secretion of CagA (Western blot)", "setting": "[3]", "value": "inhibited"}, {"measurement": "secretion of SecA (Western blot)", "setting": "[3]", "value": "inhibited"}, {"measurement": "secretion of VacA (Western blot)", "setting": "[3]", "value": "inhibited"}, {"measurement": "expression of urease A (Urease α)", "setting": "urease A and urease B", "value": "significantly decreased"}, {"measurement": "expression of urease B (Urease β)", "setting": "urease A and urease B", "value": "significantly decreased"}, {"measurement": "expression of alpA gene", "setting": "[4]", "value": "decreased"}, {"measurement": "expression of alpB gene", "setting": "[4]", "value": "decreased"}, {"measurement": "expression of babA gene", "setting": "[4]", "value": "decreased"}]}]}
